In US9334249B2, “Inhibitors of cytomegalovirus” (Boehringer Ingelheim International GmbH, priority 2012, dated 2016):

What was measured:
Format in all cases: cell-based, Human Cytomegalovirus
[1] = tested on: HCMV AD169-Bac-Luc2 US2-US6 clone #26 virus; assay: HCMV AD169-Bac luciferase assay (MRC-5 cells); settings: Human betaherpesvirus 5, AD169, MRC5, 72 h, read-out: EC50 (nM) Example B
Source text: HCMV AD169-Bac Luciferase Assay
This assay format is a luciferase reporter-based assay that determines the ability of compounds to inhibit the infection by detecting a luciferase signal decrease following the addition of BIGlo substrate (preparation indicated below) directly in the culture media. Mono-oxygenation of luciferin is catalyzed by luciferase in the presence of Mg2+, ATP and molecular oxygen. The generation of oxyluciferin is a luminescent reaction that can be detected with the proper platereader. Human Cytomegalovirus AD169-Bac is obtained from Dr. Thomas Shenk at Princeton University (reference paper Yu et al. 2002—J. Virol. 76 (5):2316-2328, herein incorporated by reference) and modified by recombineering to introduce a humanized firefly luciferase gene (Luc2) at the US2-US6 position in the HCMV genome. The virus is expanded in MRC-5 cells.
Serial dilutions of the DMSO stock compound solution are performed using DMSO in columns 2-11 and 14-23. DMSO alone is present in columns 1, 12, 13 and 24. Four μL of the DMSO serial dilutions is obtained and diluted using 96 μL of D-MEM 5% FBS culture medium to obtain 4% DMSO (7×).
To perform the assay, 7 μL of the freshly prepared 4% DMSO serial dilution plate is added to the assay plate containing 25 μL of MRC-5 cells plated the day before (10000 cells per well). Seventeen μL of diluted virus is added to columns 2-12 and 14-24 and only D-MEM 5% FBS medium to uninfected control (columns 1 and 13) for a final DMSO concentration of 0.6%. The virus dilution is based on the amount of virus required to obtain the highest luciferase signal possible without CPE (generally between 0.05 and 1 μL of virus stock per well or MOI=0.02). The assay plates are incubated at 37° C. with 5% CO2 for 3 days. Fifteen μL of room temperature BIGlo buffer is added to room temperature assay plates also incubated at room temperature for 15 minutes. The plates are sealed with TopSeal for biosafety and the luminescence signal is read on the TopCount plate reader (Perkin-Elmer) or equivalent.

[2] = tested on: HCMV AD169 virus; assay: HCMV AD169 CPE assay (MTS dye reduction, MRC-5 cells); settings: Human betaherpesvirus 5, AD169, MRC5, 216 h, 9 days, read-out: EC50 (nM) Example A
Description: HCMV AD169 CPE Assay This assay format is a CPE (Cytopathic effect)-based assay that determines the ability of compounds to protect cells against infection with a dye reduction assay (MTS of CellTiter 96® AQueous Non-Radioactive Cell Proliferation Assay from Promega). The conversion of MTS into aqueous, soluble formazan is performed by dehydrogenase enzymes found in metabolically active cells. The quantity of formazan product determined by absorbance at 490 nm is directly proportional to the number of living cells in culture. [table] Serial dilutions of the DMSO stock compound solution are performed using DMSO in columns 2-11 and 14-23. DMSO alone is present in columns 1, 12, 13 and 24. Four μL of the DMSO serial dilutions is obtained and diluted using 96 μL of D-MEM 5% FBS culture medium to obtain 4% DMSO (7×). To perform the assay, 10 μL of the freshly prepared 4% DMSO serial dilution plate is added to the assay plate containing 40 μL of MRC-5 cells plated the day before (10000 cells per well). Twenty μL of diluted virus is added to columns 2-12 and 14-24 and only D-MEM 5% FBS medium to uninfected control (columns 1 and 13) for a final DMSO concentration of 0.6%. The virus dilution is based on the amount of virus required to obtain a Signal-to-Background of 3-4 (generally between 0.1 and 1 μL of virus stock per well or MOI=0.05). The assay plates are incubated at 37° C. with 5% CO2 for 9 days in order to obtain 100% CPE in infected control without compound (columns 12 and 24). Ten μL of freshly mixed room temperature MTS/PMS (1:20 v/v) is added and the plates are incubated at 37° C. with 5% CO2 for 4-5 h (until signal saturation at 2.3 in the 100% CPE control). The plates are sealed with TopSeal for biosafety and read on the Envision plate reader (Perkin-Elmer) or equivalent at OD 492 nm.

[3] = tested on: HCMV AD169 virus; assay: HCMV AD169 qPCR 96-well assay (viral DNA replication, MRC-5 cells); settings: Human betaherpesvirus 5, AD169, MRC5, 72 h, qPCR of viral DNA, 3 days, read-out: EC50 (nM) Example C
Description: HCMV AD169 qPCR 96-Well Assay
The hCMV quantitative PCR (qPCR) assay evaluates the ability of a compound to inhibit, directly or indirectly, the replication of hCMV viral DNA during the first 72 h following the infection. Compounds that inhibit either entry or the hCMV polymerase are active in this assay. Compounds are tested in the qPCR assay in 96-well plates, using a 9-point dose-response with 8 compounds for each 96-well plate. The assay was adapted from the method described by Schnepf et al., Rapid determination of antiviral drug susceptibility of human cytomegalovirus by real-time PCR, Antiviral Research 81 (2009) 64-67. […]

Row | SMILES | EC50 [1] [nM] | EC50 [2] [nM] | EC50 [3] [nM]
1 | CC(C(=O)Nc1nc2ccc(NC(=O)c3cscn3)cc2n1C)c1cccc(Cl)c1 (stereo not shown) [Compound 1137] | 1600 | 1700 | –
2 | O=C(Cc1ccc(NC(=O)c2cscn2)nc1)Nc1cc(C(F)(F)F)cc(C(F)(F)F)c1 [Compound 1131] | 143 | 1520 | 220
3 | O=C(Cc1cccc(C(F)(F)F)c1)Nc1ccc2nc(NC(=O)c3cscn3)sc2c1 [Compound 1158] | 45 | 250 | 180
4 | CC(C(=O)Nc1nc2ccc(NC(=O)c3cscn3)cc2[nH]1)c1cccc(Cl)c1 (stereo not shown) [Compound 1037] | 69 | – | –
5 | O=C(Cn1ccc(NC(=O)c2cscn2)cc1=O)Nc1cccc(C(F)(F)F)c1 [Compound 1148] | 658 | – | –
6 | O=C(Cc1ccc(NC(=O)c2cscn2)cn1)Nc1cc(C(F)(F)F)cc(C(F)(F)F)c1 [Compound 1143] | 51 | 555 | –
7 | O=C(Cc1ccc(NC(=O)c2cscn2)cc1)Nc1cc(C(F)(F)F)cc(C(F)(F)F)c1 [Compound 1122] | 110 | 142 | –
8 | O=C(Cc1cccc(C(F)(F)F)c1)Nc1ccc(NC(=O)c2cscn2)nc1 [Compound 1027] | – | 2800 | –
9 | N#Cc1cccc(CC(=O)Nc2nc3ccc(NC(=O)c4cscn4)cc3s2)c1 [Compound 1098] | 74 | – | –
